# Measured values taken from US20160158231A1, “PYRIMIDINE HYDROXY AMIDE COMPOUNDS FOR TREATING PERIPHERAL NEUROPATHY” (VIB VZW, priority 2014, published 2016).
# Entries after “also recorded” stand apart in the source; their conditions may differ.
# Experiments:
# [1] = system: vincristine-induced neuropathic pain model in rats; test: Vincristine-induced neuropathic pain model in rats (Von Frey test); format: in vivo, rat
# Method: Neuropathic pain is induced by injecting 5 ml/kg Vincristine (50 μg/kg) administered daily IP for a period of 12 days. The development of neuropathic pain is confirmed by measuring of mechanical allodynia (Von Frey test) on study day 13.
# Allodynic response to tactile stimulation is assessed using the Von Frey apparatus (Touch Test®).
# The rat will be placed in an enclosure and positioned on a metal mesh surface, but allowed to move freely. The rats' cabins are covered with red cellophane to diminish environmental disturbances. The test begins after a cessation of exploratory behavior. The set of Von Frey monofilaments provide an approximate logarithmic scale of actual force and a linear scale of perceived intensity.
# The operating principle: when the tip of a fiber of given length and diameter is pressed against the skin at right angles, the force of application increases as long as the researcher continues to advance the probe until the fiber bends. After the fiber bends, the probe continues to advance, causing the fiber to bend more, but without additional force being applied. […] The Touch Test™ Sensory Evaluator can be used on the plantar surfaces of the rat's foot. The animal indicates sensation by pulling back its paw. The minimal force needed to elevate the withdrawal reflex is considered/designated as the value of reference. In order to achieve paw withdrawal, the pressure applied is sometimes greater than 60 g, often requiring the researcher to apply enough pressure with the Von Frey filament to actually lift the paw of the naive animal. Decreases in force needed to induce withdrawal are indicative of allodynia, as the force applied is a non-painful stimulus under normal conditions.
# [2] = system: HDAC6 (acetylated α-tubulin) in Neuro2a cells; test: Acetylated α-tubulin in Neuro2a cells (Western blot, staining): potency to inhibit HDAC6; conditions: for acetylated α-tubulin levels on Western blot / acetylated α-tubulin, staining of treated cells: 1 μM; for acetylated α-tubulin levels on Western blot: compared to DMSO; for acetylated α-tubulin, staining of treated cells: immunofluorescent staining; for relative potency to increase acetylated α-tubulin (dose-response): Western blot, different concentrations
# [3] = Mouse pharmacokinetic studies (plasma and brain); format: in vivo; conditions: male, C57BL/6, mouse, iv, 1 mg/kg, read-out: Mouse brain to plasma ratio
# Method: Male C57BL/6 mice were fasted overnight. Compounds A and B were dissolved in dimethyl acetamide at 10 times the final concentration, then Solutol HS 15 (BASF) was added to a final concentration of 10%. Finally 80% saline was added and vortexed to achieve a clear solution. Fifteen animals were injected via the tail vein with 1 mg/kg compound. Blood was collected by retro-orbital bleed at 5 minutes, 15 minutes, 30 minutes, 1 hour, 2 hours, 4 hours, 8 hours and 24 hours after dosing. At 5 minutes, 30 minutes, 1 hour and 4 hours after dosing three animals per time point were sacrificed and brains were removed. The blood was centrifuged at 2000 g for 5 minutes at 4° C. to obtain plasma. Brain samples were homogenized in PBS. The plasma and brain homogenate were extracted with acetonitrile and the level of compound was analyzed by LC/MS/MS. The level of compound in plasma was calculated from a standard curve in rat plasma and the level in brain was calculated from a standard curve in brain homogenate. The area under the curve in plasma and brain were calculated using WinNonLin software. The brain to plasma ratio was determined using the area under the curve values for the two compartments.
# [4] = system: acetylated histone 3 (H3) in Neuro2a cells; test: Acetylation status of histone 3 in Neuro2a cells: selectivity; format: cell-based, mouse; conditions: 1 μM; for acetylation of H3 on Western blot: ratio acetylated H3/H4 normalized to DMSO
# HSPB1^S135F DRG neurons [5] = test: Axonal transport of mitochondria in DRG neurons cultured from HSPB1 S135F mice; format: cell-based, mouse; conditions: 2.5 μM; for amount of stationary mitochondria / number of moving mitochondria in the neurites / number of total mitochondria in the neurites: vs DMSO
# Source text: Both compounds were able to increase the number of moving mitochondria in the neurites of HSPB1^S135F DRG neurons (FIGS. 4A and 4D).
# [6] = system: C57B16/J mice, vincristine-induced sensory neuropathy; format: in vivo, mouse
# Method: To study whether treatment with vincristine in vivo could induce a peripheral neuropathy, C57B16/J mice were injected intraperitoneally with vincristine on a daily basis. First, the animals were injected with different doses of vincristine. As sensory rather than motor problems are more pronounced in vincristine associated neuropathy patients, the Sensory Nerve Action Potentials (SNAPs) of the dorsal caudal tail nerve were first evaluated (FIG. 6A).
# These animals were co-treated with vincristine and a selective HDAC6-inhibitor (Tubastatin A) to study the therapeutic potential of HDAC6-inhibition. […] A motor phenotype in our mice after vincristine treatment was not detected (results not shown).
# [7] = Rat pharmacokinetic studies; format: in vivo; conditions: plasma, male SD rats, IV 1 mg/kg
# Method: Male SD rats were fasted overnight. Compounds A and B were dissolved in dimethyl acetamide at 10 times the final concentration, then Solutol HS 15 (BASF) was added to a final concentration of 10%. Finally 80% saline was added and vortexed to achieve a clear solution. For the IV dosing three animals were injected via the foot dorsal vein with 1 mg/kg compound. For the PO dosing 5 mg/kg of compound was delivered by oral gavage. Blood was collected via the tail vein into K2EDTA tubes at 5 minutes, 15 minutes, 30 minutes, 1 hour, 2 hours, 4 hours, 8 hours and 24 hours after dosing. The blood was centrifuged at 2000 g for 5 minutes at 4° C. to obtain plasma. The plasma was extracted with acetonitrile and the level of compound was analyzed by LC/MS/MS. The level of compound in plasma was calculated from a standard curve in rat plasma. The IV clearance and area under the curve were calculated using WinNonLin software. The dose adjusted area under the curve for the IV and oral dosing were used to calculate the oral bioavailability.
# [8] = system: taxol-induced neuropathic pain model in rats; test: Taxol-induced neuropathic pain model in rats (Von Frey test); format: in vivo, rat
# Method: A study was conducted to extend the previous findings in the vincristine model to a different model of chemotherapy-induced neuropathy, the taxol-induced neuropathic pain model in rats.
# Neuropathic pain is induced by a 0.5 ml/kg injection of taxol (2 mg/kg) administered IP on days 0-12. The development of neuropathic pain is confirmed by measuring mechanical allodynia (Von Frey test) on study day 13 as described above.
# Pain was assessed using Von-Frey (VF) test for tactile allodynia on study days 13-15. The Rotarod Test was used to assess motor/coordination function.
# Neuropathic pain was induced by a 0.5 ml/kg injection of taxol (2 mg/kg) administered IP on study days 0-12. The development of neuropathic pain was confirmed by measuring mechanical allodynia (Von Frey test) on study day 13.
# mutant HSPB1^S135F mice [9] = test: Motor and sensory deficits of mutant HSPB1 S135F mice (CMT2 model); format: in vivo, mouse; conditions: 3 mg/kg, daily IP injection, symptomatic animals
# Source text: From the age of 6 months on, mutant HSPB1^S135F mice display motor and sensory deficits (d'Ydewalle et al., 2011). […] A positive trend for all the compounds tested was observed.
# mutant HSPB1^S135F mice [10] = conditions: d'Ydewalle et al., 2011; cited from earlier work
# HSPB1^S135F DRG neurons [11] = conditions: d'Ydewalle et al., 2011; cited from earlier work
SMILES,acetylated α-tubulin levels on Western blot [2],"acetylated α-tubulin, staining of treated cells [2]",Kp [3],acetylation of H3 on Western blot [4],levels of acetylated α-tubulin in the neurites (staining) (HSPB1^S135F DRG neurons [5]),amount of stationary mitochondria (HSPB1^S135F DRG neurons [5]),number of moving mitochondria in the neurites (HSPB1^S135F DRG neurons [5]),number of total mitochondria in the neurites (HSPB1^S135F DRG neurons [5]),clearance [7],relative potency to increase acetylated α-tubulin (dose-response) [2],amplitude of the compound muscle action potential (CMAP) (mutant HSPB1^S135F mice [9]),restoration of motor and sensory defects (mutant HSPB1^S135F mice [10]),other results
"O=C(NO)c1cnc(NC2(c3ccccc3)CC2)nc1 [Compound A, N-hydroxy-2-((1-phenylcyclopropyl)amino)pyrimidine-5-carboxamide]",significant increase,increased levels,1.23,do not change,increased,remains unchanged,increase,increase,100 mL/min/kg,,,,"increasing the withdrawal force (Von Frey) ([1]; 3 mg/kg PO b.i.d.): not active; animals waking ability ([1]; 3 mg/kg and 10 mg/kg PO starting from study day 7): trend of improvement; Von Frey withdrawal force ([1]; 10 mg/kg PO b.i.d., study day 13, vehicle 9.45±0.66 g, ns): 11.00 ± 1.07 g; Von Frey withdrawal force ([1]; 10 mg/kg PO b.i.d., study day 15, vehicle 14.50±1.51 g, p<0.05): 33.85 ± 6.96 g; Von Frey force ([1]; 10 mg/kg, study days 14-15): significantly decreased; sensory neuropathy induced by vincristine (SNAP) ([6]; 25 mg/kg/day intraperitoneal, one week, co-treatment with vincristine): seems to reduce the sensory neuropathy; Von Frey withdrawal force ([8]; 3 mg/kg PO b.i.d., 2 hours post dosing, study day 15, vehicle 13.21±1.49 g): 53.20 ± 2.78 g; Von Frey withdrawal force ([8]; 10 mg/kg PO b.i.d., study day 13 post dosing, vehicle 15.33±2.13 g): 53.11 ± 4.77 g; reversing pain (conclusion) ([8]; doses of 3 mg/kg and 10 mg/kg): active in reversing pain"
"O=C(NO)c1cnc(NC2(c3cccc(F)c3)CCCCC2)nc1 [Compound B, 2-((1-(3-fluorophenyl)cyclohexyl)amino)-N-hydroxypyrimidine-5-carboxamide]",significant increase,increased levels,1.28,do not change,increased,remains unchanged,increase,increase,38.3 mL/min/kg,more potent,statistical significant rescue; also recorded: can restore,,
"NCC1(CC(=O)O)CCCCC1 [Gabapentin, reference compound]",,,,,,,,,,,,,"Von Frey withdrawal force ([1]; 150 mg/kg IP, study day 15, vehicle 14.50±1.51 g): 43.95 ± 5.00 g; Von Frey withdrawal force ([8]; 150 mg/kg IP, 2 hours post dosing, study day 15, vehicle 13.21±1.49 g): 54.90 ± 3.63 g"
"CC(/C=C/C(=O)NO)=C\[C@@H](C)C(=O)c1ccc(N(C)C)cc1 [TSA, Trichostatin A, reference compound]",,increased levels,,increases,,,,,,more potent,,can be restored,"acetylated H3 in nuclei, staining of treated cells ([4]; immunofluorescent staining): more acetylated H3"
CN1CCc2c(c3ccccc3n2Cc2ccc(C(=O)NO)cc2)C1 [Tubastatin A],,,,,,,,,,,can restore,can be restored,rescue of the axonal transport defect of mitochondria (HSPB1^S135F DRG neurons [11]): could be rescued
CC[C@]1(O)C[C@H]2CN(CCc3c([nH]c4ccccc34)[C@@](C(=O)OC)(c3cc4c(cc3OC)N(C=O)[C@H]3[C@@](O)(C(=O)OC)[C@H](OC(C)=O)[C@]5(CC)C=CCN6CC[C@]43[C@@H]65)C2)C1 [vincristine],,,,,,,,,,,,,"reduction in SNAP amplitude compared to vehicle treated mice ([6]; C57B16/J, mouse, in vivo, ip, 7 days): 35.4%; motor phenotype ([6]; mouse, in vivo): not detected; SNAP latencies ([6]; mouse, in vivo, ip): unaffected"
